Measurements reported in PMC12095788 (Communications Chemistry, 2025).

Experiments:
[1] = target: T1, Gal4-Nurr1 (wt human Nurr1 LBD) (Homo sapiens, UniProt P43354); experiment: Gal4-Nurr1 hybrid reporter gene assay (wild-type); type: cell-based
T1 construct: expressed in transfected cells; host or cells: HEK293T

[2] = target: full-length human Nurr1 (NBRE) (Homo sapiens, UniProt P43354); experiment: Full-length Nurr1 reporter gene assay, monomer response element (NBRE); type: cell-based
[3] = target: full-length human Nurr1 (NurRE) (Homo sapiens, UniProt P43354); experiment: Full-length Nurr1 reporter gene assay, homodimer response element (NurRE); type: cell-based
[4] = target: full-length human Nurr1 / RXR heterodimer (DR5) (Homo sapiens, UniProt P43354); experiment: Full-length Nurr1 reporter gene assay, RXR-heterodimer response element (DR5); type: cell-based
Nurr1 LBD - NCOR1 = target: T2, Nurr1 LBD - NCOR1 (Homo sapiens, UniProt P43354); experiment: HTRF co-regulator recruitment assay, NCOR1; type: biochemical; settings: fluorescein labeled corepressor peptide, read-out: IC50 NCOR1 displacement from Nurr1 LBD
T2 construct: a plasmid construct encoding Nurr1 (aa 364-598) in a pMal vector system; MBP (cleaved yes); made in house; host or cells: E. coli BL21-R3-pRARE2
Text: (§1) Homogeneous time-resolved fluorescence energy transfer (HTRF) experiments were used to study the recruitment of co-regulator peptides to the Nurr1-LBD in the presence or absence of test compounds. Terbium cryptate as streptavidin conjugate (Tb-SA; Cisbio Bioassays, Codolet, France) was used as FRET donor for stable coupling to biotinylated recombinant Nurr1 LBD protein. Fluorescein-labeled co-regulator peptides were used as FRET acceptors (peptide sequences are reported in Supplementary Tab. 4). […] Recruitment of CoREST and Lmx1b peptides was studied using biotin-labeled peptides for stable coupling to Tb-SA as FRET donor and sGFP-Nurr1[26] LBD as FRET acceptor. […] Experiments were carried out in 384 well format using white flat bottom small volume polystyrol microtiter plates (Greiner Bio-One, Frickenhausen, Germany). After 2 h incubation at rt, fluorescence intensities (FI) after excitation at 340 nm were recorded at 520 nm for fluorescein acceptor fluorescence and 620 nm for Tb-SA donor fluorescence on a SPARK plate reader (Tecan Group Ltd.). FI520 nm was divided by FI620 nm and multiplied with 10,000 to give a dimensionless HTRF signal.

Nurr1 LBD - SMRT = target: T3, Nurr1 LBD - SMRT (Homo sapiens, UniProt P43354); experiment: HTRF co-regulator recruitment assay, SMRT; type: biochemical; settings: fluorescein labeled corepressor peptide, read-out: IC50 SMRT displacement from Nurr1 LBD
T3 construct: a plasmid construct encoding Nurr1 (aa 364-598) in a pMal vector system; MBP (cleaved yes); made in house; host or cells: E. coli BL21-R3-pRARE2
Text: as §1

Nurr1 LBD - PIASγ = target: T4, Nurr1 LBD - PIASγ (Homo sapiens, UniProt P43354); experiment: HTRF co-regulator recruitment assay, PIASγ; type: biochemical; settings: fluorescein labeled corepressor peptide, read-out: IC50 PIASγ displacement from Nurr1 LBD
T4 construct: a plasmid construct encoding Nurr1 (aa 364-598) in a pMal vector system; MBP (cleaved yes); made in house; host or cells: E. coli BL21-R3-pRARE2
Text: as §1

Nurr1 LBD - NRIP = target: T5, Nurr1 LBD - NRIP (Homo sapiens, UniProt P43354); experiment: HTRF co-regulator recruitment assay, NRIP; type: biochemical; settings: fluorescein labeled coactivator peptide, read-out: IC50 NRIP displacement from Nurr1 LBD
T5 construct: a plasmid construct encoding Nurr1 (aa 364-598) in a pMal vector system; MBP (cleaved yes); made in house; host or cells: E. coli BL21-R3-pRARE2
Text: as §1

Nurr1 LBD - NCoA6 = target: T6, Nurr1 LBD - NCoA6 (Homo sapiens, UniProt P43354); experiment: HTRF co-regulator recruitment assay, NCoA6; type: biochemical; settings: fluorescein labeled coactivator peptide, read-out: IC50 NCoA6 displacement from Nurr1 LBD
T6 construct: a plasmid construct encoding Nurr1 (aa 364-598) in a pMal vector system; MBP (cleaved yes); made in house; host or cells: E. coli BL21-R3-pRARE2
Text: as §1

Nurr1 LBD - CoREST = target: T7, Nurr1 LBD - CoREST (Homo sapiens, UniProt P43354); experiment: HTRF co-regulator recruitment assay, CoREST; type: biochemical; settings: biotinylated CoREST peptide, sGFP-Nurr1 LBD
T7 construct: sGFP-Nurr1[26]; LBD as FRET acceptor; made in house
Text: as §1

Nurr1 LBD - Lmx1b = target: T8, Nurr1 LBD - Lmx1b (Homo sapiens, UniProt P43354); experiment: HTRF co-regulator recruitment assay, Lmx1b; type: biochemical; settings: biotinylated Lmx1b peptide, sGFP-Nurr1 LBD
T8 construct: sGFP-Nurr1[26]; LBD as FRET acceptor; made in house
Text: as §1

[5] = target: T9, Nurr1 LBD - RXRα LBD heterodimer (Homo sapiens, UniProt P43354); experiment: ITC Nurr1-RXR dimerization; settings: ITC stoichiometry, ligand 200 µM
Nurr1 LBD (wt) [6] = target: T10, Nurr1 LBD (wt) (Homo sapiens, UniProt P43354); experiment: ITC ligand binding to Nurr1 wt LBD; settings: for n ligand binding to Nurr1 LBD: ITC stoichiometry; for n ligand binding to Nurr1 LBD / TΔS ligand binding to Nurr1 LBD: wt LBD
Target sequence in this assay (P43354 360-595 limits assumed): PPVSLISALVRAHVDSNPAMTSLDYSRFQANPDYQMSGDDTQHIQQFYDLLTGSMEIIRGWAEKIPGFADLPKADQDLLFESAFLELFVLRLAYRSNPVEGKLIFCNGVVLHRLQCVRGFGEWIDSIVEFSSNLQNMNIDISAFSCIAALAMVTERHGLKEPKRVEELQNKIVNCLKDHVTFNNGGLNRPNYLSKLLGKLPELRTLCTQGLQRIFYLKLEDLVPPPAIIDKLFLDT

[7] = target: T9, Nurr1 LBD - RXRα LBD heterodimer; experiment: HTRF Nurr1-RXRα heterodimer formation assay; type: biochemical; set-up: a plasmid construct encoding Nurr1 (aa 364-598) in a pMal vector system; MBP (cleaved yes); made in house; host or cells: E.coli BL21-R3-pRARE2 (biotinylated Nurr1 LBD)
Procedure: Assay solutions were prepared in HTRF assay buffer supplemented with 0.1% (w/v) CHAPS as well as 1% DMSO with test compounds at fixed concentrations or DMSO alone as negative control (apo). […] Samples were equilibrated at RT for 2 h before FI520 and FI620 were recorded after excitation at 340 nm, and the HTRF signal was calculated as described above.

Nurr1 LBD (wt) [8] = target: T10, Nurr1 LBD (wt); experiment: Binding kinetics by biolayer interferometry (BLI); set-up: For generation of biotinylated Nurr1 a plasmid construct encoding Nurr1 (aa 364-598) in a pMal vector system; MBP (cleaved yes); made in house; host or cells: E.coli BL21-R3-pRARE2; settings: read-out: dissociation rate koff
Target sequence in this assay (P43354 364-598): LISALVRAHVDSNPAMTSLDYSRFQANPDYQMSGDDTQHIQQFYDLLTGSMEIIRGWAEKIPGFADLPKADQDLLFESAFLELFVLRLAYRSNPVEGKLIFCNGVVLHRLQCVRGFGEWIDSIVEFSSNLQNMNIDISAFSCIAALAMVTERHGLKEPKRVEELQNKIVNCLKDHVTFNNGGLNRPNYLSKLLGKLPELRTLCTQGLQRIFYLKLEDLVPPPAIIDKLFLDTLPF
Procedure: BLI measurements were conducted using the Octet R8 instrument (Sartorius). Nurr1 was enzymatically biotinylated using BirA, and Super Streptavidin (SSA) sensors were used to capture the biotinylated Nurr1. Prior to the assay, SSA sensors were pre-soaked for 10 minutes in a buffer containing 20 mM HEPES (pH 7.4), 150 mM NaCl, 0.01% Tween-20, and 0.5% DMSO. The sensors were then loaded with 2 μM biotinylated Nurr1 for 10 min, reaching a response of ~10 nm. Free biotin sites were blocked by incubating the sensors with 20 μg/ml biocytin for 1 minute. After quenching, the sensors were washed for 20 min with HEPES buffer and equilibrated for 5 min in the same buffer supplemented with 1% PEG3K. The binding of compounds was monitored for 120 s, followed by a 120 s dissociation phase. Two control experiments were conducted: one with sensors coated with the protein but without the compound, and the other with uncoated biosensors exposed to the compound at corresponding concentrations. These controls were used to correct for non-specific binding and baseline interference.

Gal4-Nurr1 I500F = target: T11, Gal4-Nurr1 I500F (Homo sapiens, UniProt P43354, I500F); experiment: Gal4-Nurr1 hybrid reporter gene assay, mutant I500F; type: cell-based; settings: vs wt
T11 construct: expressed in transfected cells; host or cells: HEK293T

Gal4-Nurr1 H372F = target: T12, Gal4-Nurr1 H372F (Homo sapiens, UniProt P43354, H372F); experiment: Gal4-Nurr1 hybrid reporter gene assay, mutant H372F; type: cell-based; settings: vs wt
T12 construct: expressed in transfected cells; host or cells: HEK293T

Gal4-Nurr1 I500W/V373W = target: T13, Gal4-Nurr1 I500W/V373W (Homo sapiens, UniProt P43354, I500W/V373W); experiment: Gal4-Nurr1 hybrid reporter gene assay, double mutant I500W/V373W; type: cell-based; settings: fold reporter activation vs. DMSO
T13 construct: expressed in transfected cells; host or cells: HEK293T
T13 sequence (P43354 360-595 V373W/I500W limits assumed): as the sequence (P43354 360-595 limits assumed) above, with V14W, I141W counted along it

T1 sequence (P43354 360-595 limits assumed): as the sequence (P43354 360-595 limits assumed) above
T7 sequence (P43354 360-595 limits assumed): as above
T9 sequence (P43354 364-598, one chain of several): as the sequence (P43354 364-598) above
T11 sequence (P43354 360-595 I500F limits assumed): as the sequence (P43354 360-595 limits assumed) above, with I141F counted along it
T8 sequence (P43354 360-595 limits assumed): as the sequence (P43354 360-595 limits assumed) above
T8 sequence (O60663 382-402 partner limits assumed): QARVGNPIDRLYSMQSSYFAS
T2 sequence (P43354 364-598): as the sequence (P43354 364-598) above
T5 sequence (P43354 364-598): as above
T6 sequence (P43354 364-598): as above
T4 sequence (P43354 364-598): as above
T3 sequence (P43354 364-598): as above
T12 sequence (P43354 360-595 H372F limits assumed): as the sequence (P43354 360-595 limits assumed) above, with H13F counted along it
Sequence of full-length human Nurr1 (NurRE) (P43354 whole entry): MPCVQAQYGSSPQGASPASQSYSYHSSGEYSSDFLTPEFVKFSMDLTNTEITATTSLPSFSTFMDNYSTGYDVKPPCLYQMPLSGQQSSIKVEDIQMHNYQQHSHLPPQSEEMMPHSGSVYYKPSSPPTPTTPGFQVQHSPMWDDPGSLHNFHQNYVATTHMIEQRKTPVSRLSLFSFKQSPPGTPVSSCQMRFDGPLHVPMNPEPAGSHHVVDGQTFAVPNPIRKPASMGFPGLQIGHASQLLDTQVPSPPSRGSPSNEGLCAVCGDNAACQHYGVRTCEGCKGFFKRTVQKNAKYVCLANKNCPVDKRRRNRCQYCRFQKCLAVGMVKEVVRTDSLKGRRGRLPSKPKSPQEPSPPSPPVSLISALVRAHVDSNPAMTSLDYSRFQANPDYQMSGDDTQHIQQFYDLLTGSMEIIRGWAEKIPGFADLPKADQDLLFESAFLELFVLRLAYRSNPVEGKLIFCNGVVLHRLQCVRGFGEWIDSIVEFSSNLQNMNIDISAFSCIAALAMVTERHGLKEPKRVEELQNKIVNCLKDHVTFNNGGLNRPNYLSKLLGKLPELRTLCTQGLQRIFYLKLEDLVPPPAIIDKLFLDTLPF
Sequence of full-length human Nurr1 (NBRE) (P43354 whole entry): as above
Sequence of full-length human Nurr1 / RXR heterodimer (DR5) (P43354 whole entry, the tested form may be a part, one chain of several): as the sequence (P43354 whole entry) above

## O=C(O)C1=C(C(=O)Nc2ccc(-c3ccccc3OCc3ccccc3)cc2F)CCC1 [compound 1, 2-{[2’-(Benzyloxy)-3-fluoro-[1,1’-biphenyl]-4-yl]carbamoyl}cyclopent-1-ene-1-carboxylic acid]
[1]; HEK293T, Gal4 hybrid reporter, wt
  EC50: 0.03 ± 0.01 µM
[1]; higher potency than vidofludimus
  potency on Gal4-Nurr1 relative to vidofludimus: 10 fold
[2]
  EC50: 0.06 ± 0.01 µM
[3]
  EC50: 0.07 ± 0.01 µM
[4]
  EC50: 0.06 ± 0.01 µM
Nurr1 LBD - NCOR1
  IC50: 4 ± 1 µM
Nurr1 LBD - SMRT
  IC50: 5 ± 2 µM
Nurr1 LBD - PIASγ
  IC50: 12 ± 2 µM
Nurr1 LBD - NRIP
  IC50: 7 ± 2 µM
Nurr1 LBD - NCoA6
  IC50: 7 ± 2 µM
Nurr1 LBD - CoREST
  effect on CoREST recruitment to Nurr1 LBD: slightly reduced
Nurr1 LBD - Lmx1b
  effect on Lmx1b recruitment to Nurr1 LBD: no effect
[5]
  n Nurr1 LBD – RXR LBD: 0.98±0.09
Nurr1 LBD (wt) [6]
  Kd: 0.11 µM
  n ligand binding to Nurr1 LBD: 1.00±0.04
Nurr1 LBD (wt) [6]; ITC
  TΔS ligand binding to Nurr1 LBD: -23 ± 7.53 kJ/mol
Nurr1 LBD (wt) [6]; enhanced affinity vs vidofludimus, ITC
  affinity to Nurr1 LBD relative to vidofludimus: 7 fold
[7]
  effect on Nurr1-RXR heterodimerization: weakened
Nurr1 LBD (wt) [8]
  koff: 0.0224 s⁻¹

## CC(C)n1c(/C=C/C(O)CC(O)CC(=O)O)c(-c2ccc(F)cc2)c2ccccc21 (stereo not shown) [fluvastatin, reference compound]
Gal4-Nurr1 I500F
  effect of I500F mutation on Nurr1 activation by the ligand: did not alter
Gal4-Nurr1 H372F
  effect of H372F mutation on Nurr1 activation by the ligand: did not alter
Gal4-Nurr1 I500W/V373W
  activation of Gal4-Nurr1 double mutant I500W/V373W: responded
Nurr1 LBD - CoREST
  effect on CoREST recruitment to Nurr1 LBD: slightly reduced
Nurr1 LBD (wt) [6]
  n ligand binding to Nurr1 LBD: 0.90±0.04
Nurr1 LBD (wt) [6]; ITC
  TΔS ligand binding to Nurr1 LBD: 15.5 ± 1.3 kJ/mol
